Like-named read-outs stand apart in the source and are kept apart here.
Legend:
[1] = Pharmacokinetics study: exposure in inner ear, perilymph and tail plasma after single oral dose; type: in vivo, Wistar rats; conditions: for AUC: po, 10 mg/kg, 10 mg/kg p.o., per-interval AUC of azasetron free-base
Text: The 72 male Wistar rats received on 28 Jan. 2016 from Janvier (Janvier, Le Genest-St-Isle) were assigned to the study. They were divided in 3 groups of 24 animals each, one group per test article. Each group was divided in […] subgroups according to the 6-termination time-points.
72 Wistar rats were subjected to oral single dose administration of the test article, racemic azasetron hydrochloride, azasetron hydrochloride (+) or azasetron hydrochloride (−), and sacrificed at different time-points to assess the exposure of the test article in the inner ear, perilymph, and plasma. • Group racemic azasetron: 24 male Wistar, 4 rats per time-point: 10 mg/kg azasetron HCl dissolved in NaCl 0.9%. Administrated as 5 mL/kg p.o.; • Group azasetron (+): 24 male Wistar, 4 rats per time-point: 10 mg/kg (+)-azasetron HCl dissolved in NaCl 0.9%. Administrated as 5 mL/kg p.o.; • Group azasetron (−): 24 male Wistar, 4 rats per time-point: 10 mg/kg (−)-azasetron HCl dissolved in NaCl 0.9%. Administrated as 5 mL/kg p.o.
There were 6 termination time-points for each test article. At time-points 15/30/60/120/240/480 minutes after administration: peripheral plasma from the tail was sampled. The animals were sacrificed by i.v. administration of 0.25 mL/rat of a 160 mg/mL pentobarbital solution. Following sacrifice, the heart blood and both tympanic bullas (left and right) were sampled.
Both tympanic bullas (left and right) were collected, however, only the left one was used for the perilymph and inner ear analysis. The right bulla was stored at −20° C. for future needs when required. For animal IDs 1 and 4, the right bulla was used for the sampling of perilymph and inner ear.
The left bulla was dissected fresh. Briefly, the bulla was opened via the auditory opening to reveal the bone surrounding the cochlea after which the tip of the bone was removed with forceps and a 10 μL pipette tip was inserted to withdraw perilymph.
Upon exposure of the tip of the cochlea, 2 μL of perilymph (fluid) could be recovered from the bulla. The perilymph was brought to 10 μL by the addition of 8 μL water, and then extract via the addition of 30 μL of acetonitrile. After that, the samples were centrifuged and the supernatant was transferred to a glass vial appropriate for the HPLC-MS auto-sampler.
Following recovering of the perilymph, the bones of the inner ear and cochlea components were removed with fine forceps and added to a tared Eppendorf tube. The collection was weighed and brought to 10 mg with the addition of water and placed on ice until extraction. 30 μL of acetonitrile was added and the tubes were incubated in an ultrasound bath, after which they were centrifuged and the supernatant was transferred to a glass vial appropriate for the HPLC-MS auto-sampler. In the process or removing the bones of the inner ear, they were finely distributed in the media and broken by forceps. (Due to the very low volume of the tissue and its fine structure, separate grinding is considered risky vs the potential losses to plastic and media. The materials are very fine in nature and the bone particles are small thus providing only short interfaces to media. The absence of fat and the incubation in solvent is intended to provide sufficient solubility of active ingredient).
The acetonitrile used in the sample preparation for bio-analysis contained the internal standard for the HPLC-MS analysis.
30 μL acetonitrile including the internal standard were added to each 10 μL plasma sample. After adding the acetonitrile, the samples were mixed by vortex and further centrifuged. The supernatant was transferred to a glass vial appropriate for the HPLC-MS auto-sampler.
The LC system comprised an Agilent 1260 liquid chromatography equipped with a binary pump and a column oven, together with a PAL HTS-xt auto-sampler. It is linked to the AB SCIEX TRIPLE QUADTM 4500 (triple-quadrupole) instrument with an ESI interface and a switching valve integrated (Mass spectrometric analysis). […]

[2] = test system: cochlear outer hair cells (OHC); experiment: Outer hair cell survival after cisplatin (cochleograms from whole-mount fixed cochleae); type: in vivo, female Wistar rats; conditions: 14 days of treatment after cisplatin
Description: Two days after baseline audiometry (ABR and DPOAE measurements), oral treatment was initiated in both groups 15 minutes before 8 mg/kg cisplatin infusion during 30 minutes under isoflurane anesthesia. On D14, ABR and DPOAE measurements were performed to evaluate ABR threshold shifts and DPOAE amplitude loss relative to baseline and the temporal bones of each animal were subsequently preserved with PFA fixation for histology (FIG. 5).
To evaluate the effect of (+) azasetron on outer hair cells (OHC) survival after cisplatin administration at an ototoxic dose, cochleograms of surviving OHCs were constructed from whole-mount fixed cochleae.

[3] = test system: unilateral vestibular dysfunction induced by intratympanic kainic injection; experiment: Kainate model of peripheral excitotoxic vestibular injury: spontaneous nystagmus and roll angle deviation; type: in vivo, female Long-Evans; conditions: 5.6 mg/kg intraperitoneal daily for 3 days
Description: The capacity of (+)-azasetron besylate to protect against lesions in the peripheral vestibular system was assessed using the kainate model of peripheral excitotoxic injury. Following unilateral, transtympanic injection of the excitotoxic kainic acid leading to the swelling, retraction and uncoupling of synapses between vestibular sensory hair cells and primary afferent neurons, baseline recordings of spontaneous nystagmus (pathological eye movements caused by a deficit of the vestibuloculomotor reflex) and postural deviations are performed before randomization to treatment groups. Recordings were repeated daily for 3 days, then again at D6 and D13 after lesion induction.
Following lesion induction and baseline recordings at t=1h, female Long-Evans were randomized to receive intraperitoneal injections of placebo (n=18) or 5.6 mg/kg (+)-azasetron besylate daily for 3 days (t=1/24/[…]). Recording of spontaneous nystagmus and postural deviations were repeated at 2/4/6/24/25/48/49 hours and D6/D13 after initial lesion induction (FIG. 9).

CN1C(=O)COc2c(C(=O)N[C@@H]3CN4CCC3CC4)cc(Cl)cc21 [(−)-azasetron]
Total AUC Inner ear ([1]; 10 mg/kg p.o. single dose): 27829 nM·min
Total AUC Perilymph ([1]; 10 mg/kg p.o. single dose): 11901 nM·min
Total AUC Tail plasma ([1]; 10 mg/kg p.o. single dose): 65448 nM·min
concentration at 15 min ([1]; male, Wistar, rat, inner ear, oral, 10 mg/kg p.o. single dose, Time 15 (min), read-out: Average Inner ear concentration (ng azasetron free-base/g tissue)): 29 ng/g
concentration at 30 min ([1]; male, Wistar, rat, inner ear, oral, 10 mg/kg p.o. single dose, Time 30 (min), read-out: Average Inner ear concentration (ng azasetron free-base/g tissue)): 27 ng/g
concentration at 60 min ([1]; male, Wistar, rat, inner ear, oral, 10 mg/kg p.o. single dose, Time 60 (min), read-out: Average Inner ear concentration (ng azasetron free-base/g tissue)): 8 ng/g
concentration at 120 min ([1]; male, Wistar, rat, inner ear, oral, 10 mg/kg p.o. single dose, Time 120 (min), read-out: Average Inner ear concentration (ng azasetron free-base/g tissue)): 46 ng/g
concentration at 240 min ([1]; male, Wistar, rat, inner ear, oral, 10 mg/kg p.o. single dose, Time 240 (min), read-out: Average Inner ear concentration (ng azasetron free-base/g tissue)): 21 ng/g
concentration at 480 min ([1]; male, Wistar, rat, inner ear, oral, 10 mg/kg p.o. single dose, Time 480 (min), read-out: Average Inner ear concentration (ng azasetron free-base/g tissue)): 3 ng/g
AUC ([1]; male, Wistar, rat, inner ear, Time 15 (min), read-out: Inner ear AUC (converted)): 10.2 nM·h
AUC ([1]; male, Wistar, rat, inner ear, Time 30 (min), read-out: Inner ear AUC (converted)): 19.8 nM·h
AUC ([1]; male, Wistar, rat, inner ear, Time 60 (min), read-out: Inner ear AUC (converted)): 24.7 nM·h
AUC ([1]; male, Wistar, rat, inner ear, Time 120 (min), read-out: Inner ear AUC (converted)): 77.2 nM·h
AUC ([1]; male, Wistar, rat, inner ear, Time 240 (min), read-out: Inner ear AUC (converted)): 193 nM·h
AUC ([1]; male, Wistar, rat, inner ear, Time 480 (min), read-out: Inner ear AUC (converted)): 139 nM·h
AUC ([1]; male, Wistar, rat, perilymph, Time 15 (min), read-out: Perilymph AUC (converted)): 5.07 nM·h
AUC ([1]; male, Wistar, rat, perilymph, Time 30 (min), read-out: Perilymph AUC (converted)): 10.2 nM·h
AUC ([1]; male, Wistar, rat, perilymph, Time 60 (min), read-out: Perilymph AUC (converted)): 15 nM·h
AUC ([1]; male, Wistar, rat, perilymph, Time 120 (min), read-out: Perilymph AUC (converted)): 36.3 nM·h
AUC ([1]; male, Wistar, rat, perilymph, Time 240 (min), read-out: Perilymph AUC (converted)): 74.7 nM·h
AUC ([1]; male, Wistar, rat, perilymph, Time 480 (min), read-out: Perilymph AUC (converted)): 57.1 nM·h
AUC ([1]; male, Wistar, rat, tail plasma, Time 15 (min), read-out: Tail plasma AUC (converted)): 20.3 nM·h
AUC ([1]; male, Wistar, rat, tail plasma, Time 30 (min), read-out: Tail plasma AUC (converted)): 34 nM·h
AUC ([1]; male, Wistar, rat, tail plasma, Time 60 (min), read-out: Tail plasma AUC (converted)): 51.5 nM·h
AUC ([1]; male, Wistar, rat, tail plasma, Time 120 (min), read-out: Tail plasma AUC (converted)): 170 nM·h
AUC ([1]; male, Wistar, rat, tail plasma, Time 240 (min), read-out: Tail plasma AUC (converted)): 416 nM·h
AUC ([1]; male, Wistar, rat, tail plasma, Time 480 (min), read-out: Tail plasma AUC (converted)): 400 nM·h

CN1C(=O)COc2c(C(=O)NC3CN4CCC3CC4)cc(Cl)cc21.O=S(=O)(O)c1ccccc1 (single isomer, unassigned; (+)) [(+)-azasetron besylate]
conservation of OHCs in the basal turn of the cochlea versus placebo [2]: up to 11 fold
number of surviving OHCs versus placebo ([2]; p<0.001): significantly higher
improvement (reduction) of roll angle deviation (postural head tilt) versus placebo ([3]; p<0.001): 30-62%
improvement of spontaneous nystagmus versus placebo ([3]; p=0.048): 6-48%

— patent publication US11612605B2, “(+)-azasetron for use in the treatment of ear disorders” (SENSORION, priority 2016, dated 2023)
